Reference: ChEMBL document CHEMBL1144003, “Trypanocidal activity of a new pterocarpan and other secondary metabolites of plants from Northeastern Brazil flora” (Bioorg Med Chem, 2008)
Values after ≈ are worked out from the molar mass of the structure shown.

Experiments:
PBL = test: Cytotoxicity against human PBL cells after 72 hrs by alamar blue assay; format: cell-based
Trypanosoma cruzi = test: Trypanocidal activity against Trypanosoma cruzi Berenice after 72 hrs; format: functional, organism-based
HL-60 = test: Antiproliferative activity against human HL60 cells; format: functional, cell-based
HCT-8 = test: Antiproliferative activity against human HCT8 cells; format: functional, cell-based
B16 = test: Antiproliferative activity against mouse B16 cells; format: functional, cell-based
CCRF-CEM = test: Antiproliferative activity against human CEM cells; format: functional, cell-based

## COc1cccc2c1C(=O)c1c(O)c3c(c(O)c1C2=O)C[C@@](O)(C(=O)CO)C[C@@H]3O[C@H]1C[C@H](N)[C@H](O)[C@H](C)O1 [DOXORUBICIN]
PBL
  IC50: 0.97 µg/mL (≈ 1.78 µM)

## CC1=C(C)C(=O)O[C@@H]([C@]2(C)OC(=O)[C@]34CC[C@H]5[C@@H](C[C@H]6O[C@]67[C@@H](O)C=CC(=O)[C@]57C)[C@@H]3CC[C@H]24)C1 [WITHAPHYSALIN M]
Trypanosoma cruzi
  IC50: 0.7 µg/mL (≈ 1.45 µM)

## CCOC1O[C@@](C)([C@H]2CC(C)=C(C)C(=O)O2)[C@H]2CC[C@H]3[C@@H]4C[C@H]5O[C@]56[C@@H](O)C=CC(=O)[C@]6(C)[C@H]4CC[C@]123 (stereo partly drawn) [WITHAPHYSALIN O]
Trypanosoma cruzi
  IC50: 0.3 µg/mL (≈ 0.585 µM)

## CC1=C(C)C(=O)O[C@@H]([C@]2(C)OC(=O)[C@]34CC[C@H]5[C@@H](C[C@H]6O[C@]67[C@@H](O)CCC(=O)[C@]57C)[C@@H]3CC[C@H]24)C1 [WITHAPHYSALIN N]
Trypanosoma cruzi
  IC50: 6.4 µg/mL (≈ 13.2 µM)

## COC1=C(OC)C(=O)C2=C(C[C@H]3[C@](C)(C2)C[C@@H]2C[C@@]23C)C1=O (relative stereo)
PBL
  IC50: 28.4 µg/mL (≈ 93.8 µM)
Trypanosoma cruzi
  IC50: 1.3 µg/mL (≈ 4.3 µM)

## CC(C)=CCc1c(O)ccc2c1OC[C@H]1c3cc4c(cc3O[C@@H]21)OCO4
PBL
  IC50: > 50 µg/mL
Trypanosoma cruzi
  IC50: 13.3 µg/mL (≈ 37.7 µM)

## C[C@@]12C[C@H]3OC(=O)[C@@H]1CO[C@]14O[C@]5([C@H]2C1=O)[C@@](O)(CC[C@H]1[C@H]4C[C@H]2O[C@]24CC=CC(=O)[C@]14C)C(=O)O[C@@]35C [PHYSALIN F]
PBL
  IC50: 4.23 µg/mL (≈ 8.03 µM)
HL-60
  IC50: 0.5 µg/mL (≈ 0.95 µM)
Trypanosoma cruzi
  IC50: 9.4 µg/mL (≈ 17.9 µM)
HCT-8
  IC50: 0.5 µg/mL (≈ 0.95 µM)
B16
  IC50: 0.5 µg/mL (≈ 0.95 µM)
CCRF-CEM
  IC50: 0.5 µg/mL (≈ 0.95 µM)

## CC(C)=CCC/C(C)=C/Cc1c(O)ccc(C(=O)/C=C/c2ccc(O)c(O)c2)c1O
PBL
  IC50: 23 µg/mL (≈ 56.4 µM)
Trypanosoma cruzi
  IC50: 10.6 µg/mL (≈ 25.9 µM)

## CC(C)=CCC/C(C)=C/Cc1cc2c(cc1O)OC[C@H]1c3cc4c(cc3O[C@@H]21)OCO4
PBL
  IC50: > 50 µg/mL
Trypanosoma cruzi
  IC50: 12.2 µg/mL (≈ 29 µM)
